In brackets after ≈: the same amount, converted by molar mass. Several values for one entry are separate records, joined by “and”; a condition that tells them apart may be missing. Equal values may be shown once.
What was measured:
db/db mice [1] = assay: Weekly fasting glucose levels of db/db mice; format: in vivo; conditions: 150mg/kg
Method: (§1) The lean wild type control and the db/db control mice were given equal vehicle volume (0.5% CMC-Na solution). All mice were monitored for food intake, body weight, and fasting blood glucose during the 35-day trial. Glucose tolerance test (GTT) and insulin resistance test (ITT) were performed at 4 and 5 weeks of treatment, respectively. Metabolic analysis was performed at 5 weeks of treatment. At the end of the study, blood samples were taken through the retroorbital venous sinus of mice, fat depots (brown fat, inguinal subcutaneous fat, epididymal fat, perirenal fat and mesenteric fat depot) were dissected, weighed, and immediately frozen in liquid nitrogen and stored at −80 °C until required. Weight of fat depots are expressed in percentage (fat depots weight /bodyweight * 100%).

db/db mice [2] = assay: Body weight of db/db mice during 35-day treatment; format: in vivo
Method: as §1

[3] = In vitro dissolution studies: dynamic solubility in buffers and simulated biological fluids; format: physicochemical; design: BBR dissolved in CMC-Na (Figure S7a) / Ibu dissolved in CMC-Na (Figure S7b): unit not given here; conditions: mean; for solubility at 0.5 h / solubility at 1 h / solubility at 2 h / solubility at 24 h: 37 °C
Method: Solubilities were determined by adding excess sample to 30 mL different mediums, such as HCl solution, acetate buffer, phosphate buffer, SGF, FaSSIF and FeSSIF. The configuration of various buffer solutions is shown in Supplementary Table 2. After being shaken at 400 rpm at 37 °C for 0.5, 1, 2, and 24 h, 0.3 mL of suspension was sampled and centrifuged at 14,000 rpm for 8 min to isolate mother liquor, and then analyzed by HPLC after dilution. All samples were analyzed in triplicate.

db/db mice [4] = assay: Serum CHO, TG, FFA, LDL-C, HDL-C and ADPN in the fasted state; format: in vivo
Method: The serum was collected by centrifugation at 3000 × g at 4 °C for 15 min and stored at −80 °C until analysis. TG, TC, LDL-C, HDL-C, and FFA were routinely tested on a Chemray 240 automatic biochemical analyzer (Chemray 240, Shenzhen, China). Serum levels of mouse adiponectin, interleukin6 (IL-6), tumor necrosis factor-α (TNF-α) were measured using commercial enzyme-linked immunosorbent assay (ELISA) kits (Nanjing Jiancheng Bioengineering Institute, Nanjing, China) and according to the manufacturer’s instructions. The levels of IL-6, TNF-α in 3T3-L1 adipocyte culture supernatant were also detected by ELISA.

[5] = aqueous buffer, thermodynamic from solid, Acetate buffer (pH 4.5)
[6] = fasted state simulated intestinal fluid (FaSSIF-V1), FaSSIF-V1 (pH 6.5)
[7] = fed state simulated intestinal fluid (FeSSIF-V1), thermodynamic from solid, FeSSIF-V1 (pH 5.0)
[8] = simulated gastric fluid (SGF), SGF (pH 2.0)
[9] = 150mg/kg, serum, individual animals
[10] = db/db mice, vs vehicle, BJ 75 and 150 mg/kg, BBR 150 mg/kg, Ibu 150 mg/kg

## CC(C)Cc1ccc(C(C)C(=O)O)cc1 (stereo not shown) [Ibu, Ibuprofen, reference compound]
db/db mice [1]; week 0, individual animals
  Blood Glucose (Figure S9n): 16.0 mmol/L and 15.1 mmol/L and 15.0 mmol/L and 16.2 mmol/L and 11.3 mmol/L and 15.2 mmol/L
db/db mice [1]; week 1, individual animals
  Blood Glucose (Figure S9n): 16.3 mmol/L and 19.3 mmol/L and 21.7 mmol/L and 13.6 mmol/L and 13.3 mmol/L and 14.9 mmol/L
db/db mice [1]; week 2, individual animals
  Blood Glucose (Figure S9n): 20.7 mmol/L and 21.3 mmol/L and 19.0 mmol/L
db/db mice [1]; week 3, individual animals
  Blood Glucose (Figure S9n): 23.3 mmol/L and 18.9 mmol/L and 18.7 mmol/L and 22.0 mmol/L
db/db mice [1]; week 4, individual animals
  Blood Glucose (Figure S9n): 22.4 mmol/L and 22.3 mmol/L and 22.8 mmol/L
db/db mice [1]; week 5, individual animals
  Blood Glucose (Figure S9n): 23.6 mmol/L and 23.0 mmol/L
db/db mice [2]; 150mg/kg, day 1, individual animals, in g (unit assumed)
  Body weight: 38.2 and 39.7
db/db mice [2]; 150mg/kg, day 4, individual animals, in g (unit assumed)
  Body weight: 40.6 and 39.7
db/db mice [2]; 150mg/kg, day 19, individual animals, in g (unit assumed)
  Body weight: 48.2
db/db mice [2]; 150mg/kg, day 22, individual animals, in g (unit assumed)
  Body weight: 50.5
db/db mice [2]; 150mg/kg, day 25, individual animals, in g (unit assumed)
  Body weight: 51.6 and 48.5
db/db mice [2]; 150mg/kg, day 28, individual animals, in g (unit assumed)
  Body weight: 49.3 and 49.1 and 52.6 and 48.8 and 51.3
db/db mice [2]; 150mg/kg, day 31, individual animals, in g (unit assumed)
  Body weight: 48.5 and 50.3 and 53 and 48.8 and 51.4
db/db mice [2]; 150mg/kg, day 34, individual animals, in g (unit assumed)
  Body weight: 51.2 and 54.1 and 50.2 and 52.2
db/db mice [2]; 150mg/kg, individual animals, in g (unit assumed)
  Body weight gain (day 34 minus day 1): 12.5 and 9.1 and 9.9 and 9.2 and 12.8 and 12
db/db mice [2]; db/db mice, 5 weeks, BJ 75 and 150 mg/kg, BBR 150 mg/kg, Ibu 150 mg/kg
  Body weight compared with vehicle: did not observe any significant difference in body weight
[3]; Acetate buffer (pH 4.5)
  solubility at 0.5 h: 89.5 µg/mL (≈ 0.434 mM)
  solubility at 1 h: 103 µg/mL (≈ 0.497 mM)
[3]; time 0.5
  Ibu dissolved in CMC-Na (Figure S7b): 0.09941
[3]; time 1
  Ibu dissolved in CMC-Na (Figure S7b): 0.1517
[3]; time 24
  Ibu dissolved in CMC-Na (Figure S7b): 0.385
[3]; Phosphate buffer (pH 6.8)
  solubility at 0.5 h: 2650 µg/mL (≈ 12.9 mM)
  solubility at 1 h: 2680 µg/mL (≈ 13 mM)
[3]; [5]
  solubility at 2 h: 124 µg/mL (≈ 0.603 mM)
  solubility at 24 h: 125 µg/mL (≈ 0.605 mM)
[3]; aqueous buffer, thermodynamic from solid, Phosphate buffer (pH 6.8)
  solubility at 2 h: 2900 µg/mL (≈ 14.1 mM)
[3]; fasted state simulated intestinal fluid (FaSSIF-V1), thermodynamic from solid, FaSSIF-V1 (pH 6.5)
  solubility at 24 h: 1480 µg/mL (≈ 7.16 mM)
[3]; [6]
  solubility at 0.5 h: 1660 µg/mL (≈ 8.07 mM)
  solubility at 1 h: 1610 µg/mL (≈ 7.8 mM)
  solubility at 2 h: 1610 µg/mL (≈ 7.81 mM)
[3]; [7]
  solubility at 0.5 h: 798 µg/mL (≈ 3.87 mM)
  solubility at 1 h: 780 µg/mL (≈ 3.78 mM)
  solubility at 2 h: 890 µg/mL (≈ 4.31 mM)
  solubility at 24 h: 705 µg/mL (≈ 3.42 mM)
[3]; [8]
  solubility at 0.5 h: 51.9 µg/mL (≈ 0.252 mM)
  solubility at 1 h: 70.4 µg/mL (≈ 0.341 mM)
  solubility at 2 h: 77.3 µg/mL (≈ 0.375 mM)
  solubility at 24 h: 59.9 µg/mL (≈ 0.29 mM)
db/db mice [4]; [9]
  CHO: 4.079 mmol/L and 3.798 mmol/L and 4.949 mmol/L and 5.236 mmol/L and 4.727 mmol/L and 4.145 mmol/L
  FFA: 912.261 µmol/L and 870.411 µmol/L and 861.968 µmol/L and 886.564 µmol/L and 965.859 µmol/L and 978.341 µmol/L
  HDL-C: 1.7462 mmol/L and 1.7831 mmol/L and 1.9083 mmol/L and 2.0311 mmol/L
  LDL-C: 5.9624 mmol/L and 6.6672 mmol/L and 7.0004 mmol/L and 6.9602 mmol/L and 5.8098 mmol/L and 6.6236 mmol/L
  Mouse ADPN: 593.01 ng/mL and 440.43 ng/mL and 462.23 ng/mL and 556.39 ng/mL and 491.43 ng/mL and 431.93 ng/mL
  TG: 1.761 mmol/L and 1.861 mmol/L and 1.959 mmol/L and 1.91 mmol/L and 1.579 mmol/L and 1.279 mmol/L
db/db mice [4]; [10]
  Serum levels of CHO, TG, FFA and LDL-C: not significantly different
  Serum levels of HDL-C and adiponectin (ADPN): not significantly different

— publication PMC9374667 (Communications Biology, 2022)
